Tested on: J3130
Assay: Bioassay: induction of growth of drug-dependent femX null mutant J3130 by antibiotics applied on paper discs
Assay type: cell-based, Streptomyces coelicolor
Conditions: for induction of growth of J3130 around the paper disc: paper disc on MMT medium spread with J3130 spores, result in words
From the text: To see if growth of J3130 could be induced by control antibiotics known to target the cell envelope, spores of J3130 were spread on MMT medium (Kieser et al, 2000) and potential inducers were applied on paper discs to the freshly spread plates. […] None of the other antibiotics tested, including many cell wall-specific non-glycopeptide antibiotics, induced growth of J3130.
In order to perform the assay of the invention, spores of J3130 are spread on MMT medium at concentration of approximately 5×10^6/12 cm^2 plate. Test compound is applied on paper discs to a number of freshly spread plates in parallel using a different concentration of the test compound in each plate.

Molecule	induction of growth of J3130 around the paper disc	amount that gives a positive reaction in the bioassay (initial assessment of sensitivity) (J3130 bioassay, two-fold dilution series) [ng]
N[C@H]1C(=O)N[C@@H]2Cc3ccc(c(Cl)c3)Oc3cc4cc(c3O)Oc3ccc(cc3Cl)[C@@H](O)[C@@H]3NC(=O)[C@H](NC(=O)[C@@H]4NC(=O)[C@@H](NC2=O)c2cc(O)cc(c2)Oc2cc1ccc2OS(=O)(=O)O)c1cc(Cl)c(O)c(c1)-c1c(O)cc(O)cc1[C@@H](C(=O)O)NC3=O [A47934]	induced a halo of growth	–
CN[C@H](CC(C)C)C(=O)N[C@H]1C(=O)N[C@@H](CC(N)=O)C(=O)N[C@H]2C(=O)N[C@H]3C(=O)N[C@H](C(=O)N[C@H](C(=O)O)c4cc(O)cc(O)c4-c4cc3ccc4O)[C@H](O[C@H]3C[C@](C)(N)[C@@H](O)[C@H](C)O3)c3ccc(c(Cl)c3)Oc3cc2cc(c3O[C@@H]2O[C@H](CO)[C@@H](O)[C@H](O)[C@H]2O[C@H]2C[C@](C)(N)[C@@H](O)[C@H](C)O2)Oc2ccc(cc2Cl)[C@H]1O [Chloroeremomycin]	induced a halo of growth	–
CN[C@H](CC(C)C)C(=O)N[C@H]1C(=O)N[C@@H](CC(N)=O)C(=O)N[C@H]2C(=O)N[C@H]3C(=O)N[C@H](C(=O)N[C@H](C(=O)O)c4cc(O)cc(O)c4-c4cc3ccc4O)[C@H](O)c3ccc(c(Cl)c3)Oc3cc2cc(c3O[C@@H]2O[C@H](CO)[C@@H](O)[C@H](O)[C@H]2O[C@H]2C[C@](C)(N)[C@H](O)[C@H](C)O2)Oc2ccc(cc2Cl)[C@H]1O [Vancomycin]	induced a halo of growth	80
Ristocetin	induced a halo of growth	–
